# In ChEMBL document CHEMBL1201862, “PubChem BioAssay data set” (2004):
# Calls of active or inactive are those of the source.
# Tests used:
# [1] = test system: HeLa; assay: HeLa cell cytotoxicity, dose response, cytotoxicity control for MITF activator project, CellTiter-Glo luminescence, cherry-pick samples (AID 540259); type: functional, cell-based; details: Homo sapiens
# [2] = target: Dual specificity tyrosine-phosphorylation-regulated kinase 1A (Rattus norvegicus, UniProt Q63470); type: biochemical, Homo sapiens
# [3] = target: T1, Leucine aminopeptidase (Plasmodium falciparum 3D7, UniProt Q8IL11); assay: P. falciparum M17LAP inhibitors, primary screen, biochemical, fluorogenic H-Leu-NHMec substrate, 1536-well (AID 1619); type: functional
# T1 sequence (Q8IL11 whole entry): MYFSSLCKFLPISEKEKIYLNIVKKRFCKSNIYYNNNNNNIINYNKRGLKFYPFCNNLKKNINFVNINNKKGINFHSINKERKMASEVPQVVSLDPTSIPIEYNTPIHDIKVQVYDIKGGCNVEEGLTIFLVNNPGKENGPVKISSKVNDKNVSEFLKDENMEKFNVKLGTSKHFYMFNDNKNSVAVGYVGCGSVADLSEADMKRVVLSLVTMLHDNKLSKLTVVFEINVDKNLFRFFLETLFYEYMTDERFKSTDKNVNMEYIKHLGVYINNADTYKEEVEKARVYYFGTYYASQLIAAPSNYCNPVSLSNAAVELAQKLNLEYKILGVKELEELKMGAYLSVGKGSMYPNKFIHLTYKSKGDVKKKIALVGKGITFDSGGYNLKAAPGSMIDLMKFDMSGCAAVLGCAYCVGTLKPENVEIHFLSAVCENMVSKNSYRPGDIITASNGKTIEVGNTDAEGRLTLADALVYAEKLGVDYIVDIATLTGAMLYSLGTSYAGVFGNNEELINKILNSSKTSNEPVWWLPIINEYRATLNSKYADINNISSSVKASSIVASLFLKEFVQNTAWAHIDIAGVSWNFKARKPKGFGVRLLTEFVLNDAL
# [4] = target: Cytochrome P450 2C9 (Homo sapiens, UniProt P11712)
# Sequence of Cytochrome P450 2C9 (P11712 whole entry): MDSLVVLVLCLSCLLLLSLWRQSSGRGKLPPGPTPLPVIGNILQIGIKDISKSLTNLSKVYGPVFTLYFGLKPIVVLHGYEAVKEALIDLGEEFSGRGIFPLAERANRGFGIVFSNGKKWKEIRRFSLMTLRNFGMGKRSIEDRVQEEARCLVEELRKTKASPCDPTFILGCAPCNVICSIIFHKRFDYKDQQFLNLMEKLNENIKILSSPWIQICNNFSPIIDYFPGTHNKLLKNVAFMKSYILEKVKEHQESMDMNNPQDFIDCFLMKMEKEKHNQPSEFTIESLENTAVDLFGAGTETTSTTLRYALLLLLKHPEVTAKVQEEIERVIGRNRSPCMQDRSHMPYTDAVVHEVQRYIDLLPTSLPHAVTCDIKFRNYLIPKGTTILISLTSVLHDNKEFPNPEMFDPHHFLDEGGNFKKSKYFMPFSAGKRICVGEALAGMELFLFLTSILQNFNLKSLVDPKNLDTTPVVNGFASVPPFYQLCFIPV
# [5] = growth suppression of PTEN-null colon cells, dose response, cell-based, HCT116 PTEN knockout (AID 1047); type: functional;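 further: HCT116 colon tumor cells with PTEN knocked out; cells exposed to compound for 60 hours before readout; potency for loss of cell viability measured by luminescence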
# [6] = target: Cytochrome P450 2C19 (Homo sapiens, UniProt P33261); assay: Cytochrome panel assay with activity outcomes. Panel member name: p450-cyp2c19 Compounds with AC50 equal or less than 10 uM are considered active; type: functional; details: read-out: AC50
# Sequence of Cytochrome P450 2C19 (P33261 whole entry): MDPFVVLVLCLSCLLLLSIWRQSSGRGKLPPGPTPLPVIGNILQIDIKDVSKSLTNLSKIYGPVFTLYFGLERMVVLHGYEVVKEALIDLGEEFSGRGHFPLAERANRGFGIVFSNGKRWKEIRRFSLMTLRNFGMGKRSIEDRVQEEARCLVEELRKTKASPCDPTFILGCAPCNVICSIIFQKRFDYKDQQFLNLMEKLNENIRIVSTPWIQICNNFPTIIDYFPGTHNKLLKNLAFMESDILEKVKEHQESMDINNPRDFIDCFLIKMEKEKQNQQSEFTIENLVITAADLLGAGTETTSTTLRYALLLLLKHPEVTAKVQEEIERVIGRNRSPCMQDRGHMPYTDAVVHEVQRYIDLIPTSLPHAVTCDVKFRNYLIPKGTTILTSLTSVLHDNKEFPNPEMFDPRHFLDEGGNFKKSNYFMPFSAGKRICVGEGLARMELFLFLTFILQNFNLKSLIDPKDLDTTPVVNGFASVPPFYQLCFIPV
# [7] = target: T2, SUMO-activating enzyme (Homo sapiens, UniProt Q9UBT2); assay: SUMOylation inhibitor hit validation, confirmation, SUMOylation inhibitor project, biochemical, AlphaScreen (AID 2018); type: functional
# T2 sequence (Q9UBE0 whole entry): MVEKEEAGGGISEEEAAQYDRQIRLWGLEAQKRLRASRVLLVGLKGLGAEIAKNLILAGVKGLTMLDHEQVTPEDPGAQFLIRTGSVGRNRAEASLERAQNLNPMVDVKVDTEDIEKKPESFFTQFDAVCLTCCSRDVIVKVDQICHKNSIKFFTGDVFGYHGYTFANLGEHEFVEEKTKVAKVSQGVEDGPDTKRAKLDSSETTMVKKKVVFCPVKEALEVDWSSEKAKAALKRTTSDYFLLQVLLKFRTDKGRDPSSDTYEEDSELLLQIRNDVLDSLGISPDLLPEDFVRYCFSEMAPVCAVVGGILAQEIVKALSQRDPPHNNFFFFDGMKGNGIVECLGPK
# T2 sequence (Q9UBT2 whole entry): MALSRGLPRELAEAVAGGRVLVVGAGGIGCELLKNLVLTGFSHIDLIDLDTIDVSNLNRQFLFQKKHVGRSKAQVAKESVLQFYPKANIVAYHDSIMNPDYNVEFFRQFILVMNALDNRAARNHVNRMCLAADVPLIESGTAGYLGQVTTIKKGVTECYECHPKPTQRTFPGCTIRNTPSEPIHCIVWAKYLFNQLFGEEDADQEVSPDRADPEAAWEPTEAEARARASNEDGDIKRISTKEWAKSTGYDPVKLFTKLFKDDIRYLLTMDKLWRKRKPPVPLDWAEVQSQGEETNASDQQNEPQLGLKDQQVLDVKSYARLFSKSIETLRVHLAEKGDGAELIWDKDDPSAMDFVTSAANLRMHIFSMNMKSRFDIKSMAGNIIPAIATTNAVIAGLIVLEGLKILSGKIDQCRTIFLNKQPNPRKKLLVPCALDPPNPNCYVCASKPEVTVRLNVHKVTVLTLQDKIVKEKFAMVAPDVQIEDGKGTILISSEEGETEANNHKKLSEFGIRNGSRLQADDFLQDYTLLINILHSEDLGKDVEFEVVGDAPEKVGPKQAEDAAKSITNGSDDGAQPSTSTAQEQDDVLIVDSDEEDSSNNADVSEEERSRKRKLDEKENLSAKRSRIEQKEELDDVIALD
# [8] = growth suppression of beta-catenin-knockout colon cells, dose response, cell-based, HCT116, human colon tumor (AID 1045); type: functional;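 further: HCT116 colon tumor cells with beta catenin knocked out; cells exposed to compound for 60 hours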
# [9] = test system: INS1; assay: beta cell apoptosis inhibitors, cytokine rescue, dose response, luminescence, retest (AID 449756); type: functional, cell-based; details: Rattus norvegicus;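 further: cell death triggered by IL-1 beta plus TNF-alpha plus IFN-gamma mixture; protective hits raise ATP signal compared with cytokine alone wells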
# [10] = target: T2, SUMO-activating enzyme; assay: inhibitors of in vitro SUMOylation cascade, primary screen, biochemical, HTRF, uHTS (AID 2006); type: protein-complex assay
# [11] = target: T3, Calpain-2 catalytic subunit (Sus scrofa, UniProt P43367); assay: pig calpain II inhibitor potency, dose response, biochemical, fluorogenic peptide substrate (AID 1420); type: functional
# T3 sequence (P43367 whole entry): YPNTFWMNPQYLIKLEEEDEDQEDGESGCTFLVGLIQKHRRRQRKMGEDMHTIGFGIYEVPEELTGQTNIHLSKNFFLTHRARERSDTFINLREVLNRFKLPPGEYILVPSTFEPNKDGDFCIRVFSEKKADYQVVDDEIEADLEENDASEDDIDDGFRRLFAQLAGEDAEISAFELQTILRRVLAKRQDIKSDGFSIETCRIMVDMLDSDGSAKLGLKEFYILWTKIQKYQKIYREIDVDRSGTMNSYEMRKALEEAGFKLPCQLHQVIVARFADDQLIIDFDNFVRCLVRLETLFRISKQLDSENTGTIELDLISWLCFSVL
# [12] = target: Phospholipase A2 (Homo sapiens, UniProt P04054); type: functional;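 further: confirmatory dose-response counterscreen on phospholipase A2, testing hits that came from an ultra-high-throughput screen for ATG4B inhibitors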
# Sequence of Phospholipase A2 (P04054 whole entry): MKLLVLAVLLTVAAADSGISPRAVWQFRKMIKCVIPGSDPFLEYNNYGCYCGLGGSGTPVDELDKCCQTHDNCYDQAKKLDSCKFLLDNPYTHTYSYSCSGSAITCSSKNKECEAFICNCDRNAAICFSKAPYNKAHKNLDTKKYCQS
# [13] = target: T4, Cysteine protease ATG4B (Homo sapiens, UniProt Q9Y4P1); type: functional;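 further: Fluorescence-based dose-response confirmation assay measuring inhibition of ATG4B activity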
# T4 sequence (Q9Y4P1 whole entry): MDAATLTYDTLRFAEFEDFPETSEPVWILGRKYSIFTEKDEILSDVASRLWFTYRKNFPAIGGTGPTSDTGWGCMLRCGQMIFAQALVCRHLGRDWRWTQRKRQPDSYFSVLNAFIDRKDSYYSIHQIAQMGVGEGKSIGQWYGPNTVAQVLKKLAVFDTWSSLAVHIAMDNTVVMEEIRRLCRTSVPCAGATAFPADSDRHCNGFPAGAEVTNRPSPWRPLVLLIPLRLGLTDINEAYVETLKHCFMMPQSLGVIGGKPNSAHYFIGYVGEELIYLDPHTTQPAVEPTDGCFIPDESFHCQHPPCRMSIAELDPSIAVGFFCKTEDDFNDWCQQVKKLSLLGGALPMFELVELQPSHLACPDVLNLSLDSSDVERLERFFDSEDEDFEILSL
# [14] = test system: HEK293; assay: inhibitors of LMP1-driven NF-kB reporter, dose response, cell-based, HEK293, luciferase, cherry-pick (AID 588343); type: functional; details: Homo sapiens
# [15] = intracellular Trypanosoma cruzi inhibitors in host cells – cell-based, plate reader, cherry-pick samples, set 3, dose response (AID 651818); type: functional;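 further: compounds incubated with infected cells for about four days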
# [16] = target: Glucose-6-phosphate 1-dehydrogenase (Homo sapiens, UniProt P11413); assay: human G6PD enzyme inhibitors, dose response, selectivity assay for P. falciparum G6PD inhibitor project, biochemical, fluorescence (AID 504792); type: functional
# Sequence of Glucose-6-phosphate 1-dehydrogenase (P11413 whole entry): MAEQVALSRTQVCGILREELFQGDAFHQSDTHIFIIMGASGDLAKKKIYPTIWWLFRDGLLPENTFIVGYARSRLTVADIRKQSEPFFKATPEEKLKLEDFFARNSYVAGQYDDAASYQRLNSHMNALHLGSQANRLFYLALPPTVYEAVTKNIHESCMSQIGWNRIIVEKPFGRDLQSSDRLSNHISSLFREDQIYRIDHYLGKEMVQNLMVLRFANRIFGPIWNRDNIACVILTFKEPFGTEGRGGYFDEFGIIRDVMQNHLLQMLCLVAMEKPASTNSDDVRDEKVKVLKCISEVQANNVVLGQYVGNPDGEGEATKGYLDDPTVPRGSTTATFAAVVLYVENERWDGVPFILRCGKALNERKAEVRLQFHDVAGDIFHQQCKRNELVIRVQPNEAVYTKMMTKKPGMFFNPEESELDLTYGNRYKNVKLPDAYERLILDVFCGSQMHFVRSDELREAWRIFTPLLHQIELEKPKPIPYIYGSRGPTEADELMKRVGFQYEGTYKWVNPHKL
# [17] = target: T5, DNA repair and recombination protein RAD54-like (Homo sapiens, UniProt Q92698); assay: inhibitors of human RAD54 branch migration, confirmation, biochemical, fluorescence, cherry-picked samples, dose series (AID 651657); type: functional
# T5 sequence (Q92698 whole entry): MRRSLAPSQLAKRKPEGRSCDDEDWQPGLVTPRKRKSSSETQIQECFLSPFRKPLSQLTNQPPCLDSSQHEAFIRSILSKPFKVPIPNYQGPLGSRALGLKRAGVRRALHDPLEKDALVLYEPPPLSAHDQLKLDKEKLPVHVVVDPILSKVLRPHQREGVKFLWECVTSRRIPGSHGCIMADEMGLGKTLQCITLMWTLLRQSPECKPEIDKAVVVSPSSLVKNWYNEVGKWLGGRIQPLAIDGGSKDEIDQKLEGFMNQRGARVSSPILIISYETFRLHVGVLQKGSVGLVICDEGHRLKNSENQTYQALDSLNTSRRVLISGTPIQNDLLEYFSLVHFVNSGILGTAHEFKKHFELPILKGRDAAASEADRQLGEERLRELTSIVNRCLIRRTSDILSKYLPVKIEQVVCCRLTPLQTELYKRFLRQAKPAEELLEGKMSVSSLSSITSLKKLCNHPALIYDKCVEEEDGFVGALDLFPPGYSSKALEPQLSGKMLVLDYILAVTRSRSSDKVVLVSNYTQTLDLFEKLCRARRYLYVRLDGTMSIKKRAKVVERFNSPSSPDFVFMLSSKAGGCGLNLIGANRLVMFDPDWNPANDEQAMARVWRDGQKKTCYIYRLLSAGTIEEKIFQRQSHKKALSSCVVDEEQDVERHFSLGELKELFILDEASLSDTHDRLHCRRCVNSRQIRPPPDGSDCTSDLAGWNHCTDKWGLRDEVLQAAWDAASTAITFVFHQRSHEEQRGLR
# [18] = target: T6, High affinity choline transporter 1 (Homo sapiens, UniProt Q9GZV3); assay: CHT inhibitors, dose response, cell-based, 5-point CRC, membrane potential dye (AID 504840); type: functional
# T6 sequence (Q9GZV3 whole entry): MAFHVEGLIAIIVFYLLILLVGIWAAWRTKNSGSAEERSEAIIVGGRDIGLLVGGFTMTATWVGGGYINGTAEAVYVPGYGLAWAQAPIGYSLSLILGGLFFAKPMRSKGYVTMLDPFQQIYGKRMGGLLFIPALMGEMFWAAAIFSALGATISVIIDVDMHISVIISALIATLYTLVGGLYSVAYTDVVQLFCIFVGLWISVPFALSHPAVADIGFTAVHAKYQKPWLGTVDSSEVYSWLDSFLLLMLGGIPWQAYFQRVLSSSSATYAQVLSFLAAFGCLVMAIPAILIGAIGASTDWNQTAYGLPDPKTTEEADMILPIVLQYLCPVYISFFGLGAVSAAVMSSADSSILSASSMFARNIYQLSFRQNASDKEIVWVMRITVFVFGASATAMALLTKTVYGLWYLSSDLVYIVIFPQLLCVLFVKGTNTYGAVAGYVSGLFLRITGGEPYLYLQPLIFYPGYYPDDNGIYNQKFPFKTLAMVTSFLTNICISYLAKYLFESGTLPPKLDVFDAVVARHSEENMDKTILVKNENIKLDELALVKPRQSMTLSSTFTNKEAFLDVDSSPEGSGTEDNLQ
# [19] = cytotoxicity toward NIH3T3 fibroblasts, dose response, counter-screen, cell-based, ATP luminescence, mouse fibroblasts (AID 2010); type: functional;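 further: cells exposed to compound for about 90 hours before reading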
# [20] = inhibitors of intracellular T. cruzi replication, confirmation, NIH3T3 host cells, beta-gal luminescence (AID 2044); type: functional, cell-based;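 further: intracellular parasites grown in NIH/3T3 mouse fibroblasts as host cells; luminescent beta-galactosidase reporter signal from transgenic T. cruzi replicating inside host cells; inhibitors lower the luminescence signal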
# [21] = target: Vascular endothelial growth factor receptor 2 (Homo sapiens, UniProt P35968); type: functional
# Sequence of Vascular endothelial growth factor receptor 2 (P35968 whole entry): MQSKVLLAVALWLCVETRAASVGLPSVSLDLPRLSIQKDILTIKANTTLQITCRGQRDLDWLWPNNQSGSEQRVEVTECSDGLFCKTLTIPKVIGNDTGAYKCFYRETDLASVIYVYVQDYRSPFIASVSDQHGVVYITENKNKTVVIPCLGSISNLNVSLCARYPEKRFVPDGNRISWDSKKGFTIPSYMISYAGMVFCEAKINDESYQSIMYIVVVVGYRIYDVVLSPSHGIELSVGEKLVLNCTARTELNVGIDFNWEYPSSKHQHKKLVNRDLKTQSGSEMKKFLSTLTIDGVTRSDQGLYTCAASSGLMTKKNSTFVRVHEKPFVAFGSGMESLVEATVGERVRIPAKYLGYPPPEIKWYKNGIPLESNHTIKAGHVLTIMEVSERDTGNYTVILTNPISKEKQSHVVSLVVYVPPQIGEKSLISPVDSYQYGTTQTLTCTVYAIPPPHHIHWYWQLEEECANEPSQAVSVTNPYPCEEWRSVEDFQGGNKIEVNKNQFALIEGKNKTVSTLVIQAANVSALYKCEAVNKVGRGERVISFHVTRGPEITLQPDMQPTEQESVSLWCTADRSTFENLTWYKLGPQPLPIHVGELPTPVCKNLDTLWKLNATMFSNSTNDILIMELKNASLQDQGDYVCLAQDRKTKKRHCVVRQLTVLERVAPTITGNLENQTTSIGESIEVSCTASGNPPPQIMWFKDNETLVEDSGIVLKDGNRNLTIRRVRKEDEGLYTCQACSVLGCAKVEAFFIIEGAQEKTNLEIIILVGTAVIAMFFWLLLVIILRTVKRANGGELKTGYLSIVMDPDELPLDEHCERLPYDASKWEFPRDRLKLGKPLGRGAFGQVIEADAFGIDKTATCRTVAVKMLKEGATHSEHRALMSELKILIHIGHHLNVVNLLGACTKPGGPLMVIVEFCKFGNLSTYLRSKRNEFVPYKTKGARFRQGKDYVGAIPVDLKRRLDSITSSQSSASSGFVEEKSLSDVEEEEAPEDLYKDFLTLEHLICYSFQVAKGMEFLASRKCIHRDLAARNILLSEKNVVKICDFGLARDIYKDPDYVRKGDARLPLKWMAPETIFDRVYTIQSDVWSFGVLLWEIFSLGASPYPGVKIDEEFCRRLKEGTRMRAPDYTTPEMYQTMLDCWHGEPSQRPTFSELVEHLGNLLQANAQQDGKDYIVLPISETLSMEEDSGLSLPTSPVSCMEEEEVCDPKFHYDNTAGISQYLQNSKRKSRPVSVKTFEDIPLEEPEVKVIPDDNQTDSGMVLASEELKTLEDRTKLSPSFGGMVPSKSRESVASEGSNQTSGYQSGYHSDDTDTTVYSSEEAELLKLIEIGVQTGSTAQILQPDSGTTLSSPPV
# [22] = target: Aurora kinase B (Homo sapiens, UniProt Q96GD4); type: functional
# Sequence of Aurora kinase B (Q96GD4 whole entry): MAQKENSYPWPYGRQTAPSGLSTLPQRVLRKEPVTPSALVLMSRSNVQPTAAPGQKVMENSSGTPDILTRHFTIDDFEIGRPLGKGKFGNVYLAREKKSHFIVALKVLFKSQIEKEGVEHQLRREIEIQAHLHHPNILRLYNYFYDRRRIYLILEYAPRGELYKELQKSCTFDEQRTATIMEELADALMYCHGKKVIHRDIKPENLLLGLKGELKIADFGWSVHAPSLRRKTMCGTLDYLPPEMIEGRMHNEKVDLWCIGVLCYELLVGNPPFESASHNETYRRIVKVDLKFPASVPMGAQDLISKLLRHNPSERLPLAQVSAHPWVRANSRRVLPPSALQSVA
# [23] = target: T7, Aurora kinase A (Homo sapiens, UniProt O14965); type: functional;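 further: value from the Navigating the Kinome kinase panel profiling, panel entry STK6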
# T7 sequence (O14965 whole entry): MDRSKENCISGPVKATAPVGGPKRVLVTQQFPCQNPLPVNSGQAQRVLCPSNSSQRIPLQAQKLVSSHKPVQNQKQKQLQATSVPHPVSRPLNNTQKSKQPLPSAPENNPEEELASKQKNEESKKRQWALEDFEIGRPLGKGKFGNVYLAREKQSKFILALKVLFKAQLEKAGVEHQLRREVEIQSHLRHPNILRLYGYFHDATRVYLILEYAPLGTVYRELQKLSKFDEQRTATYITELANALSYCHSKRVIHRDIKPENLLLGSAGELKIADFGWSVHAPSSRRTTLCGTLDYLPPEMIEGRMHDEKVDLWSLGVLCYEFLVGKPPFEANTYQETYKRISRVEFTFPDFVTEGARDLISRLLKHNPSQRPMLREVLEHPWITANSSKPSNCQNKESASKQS
# [24] = C. albicans growth with fluconazole, confirmation, fluorescence, retest (AID 2467); type: functional, cell-based
# [25] = NIH-3T3 fibroblast cytotoxicity, dose response, cytotoxicity control, cell-based, fluorescence, Alamar Blue, secondary assay (AID 2327); type: functional;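 further: NIH-3T3 mouse fibroblasts cultured with fluconazole at 8 µg/mL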
# [26] = test system: H9c2; assay: cells; type: functional, cell-based; details: Rattus norvegicus, H9c2, Myocardium;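 further: confirmatory concentration-response retest of ultra-high-throughput screening hits for modulation of myocardial damage; cell death induced by hydrogen peroxide oxidative stress; compound pretreatment for 60 min then peroxide exposure for 2 h; potency is for protecting the cells against peroxide damage rather than for killing them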
compound,measurement,setting,value
c1cc(-c2cc3cc4c(cc3cn2)OCO4)cs1,AC50,[1],141 µM (active)
C[N+](C)(CCOc1ccccc1)Cc1ccccc1,AC50,[2],10.5 µM (active)
COc1ccc(N2Nc3[nH]nc(N)c3N2)cc1,AC50,[2],3.12 µM (active)
same,IC50,[3],10.4 µM (active)
COc1ccc(-n2c(CNc3ccc(C)cc3)nnc2SCC(=O)Nc2nc(-c3ccccc3)cs2)cc1,AC50,[4],7.94 µM (inconclusive)
same,EC50,[5],2.49 µM (active)
same,AC50,[6],0.355 µM (inconclusive)
same,IC50,[7],39.7 µM (active)
same,EC50,[8],2.75 µM (active)
same,AC50,[9],6.07 µM (active)
same,IC50,[10],21.9 µM (active)
same,IC50,[11],21.4 µM (active)
CCCCCC(=O)Nc1ccccc1N1CCN(c2ccccc2)CC1,IC50,[12],4.38 µM (active)
same,IC50,[13],5.74 µM (active)
Cc1ccc(C(=O)Nc2ncc3c(Cl)cccc3n2)cc1,AC50,[14],2.46 µM (active)
Cc1ccc(S(=O)(=O)Nc2ccc3c(c2)CC(=O)N([C@H](C)CO)C[C@@H](C)[C@H](CN(C)Cc2ccc4c(c2)OCO4)O3)cc1,AC50,[15],4.35 µM (active)
CC(=O)c1ccc(NC(=O)Nc2ccc3c(c2)nc(C)n3C)cc1,AC50,[1],42.9 µM (active)
O=C(Nc1nnc(C2CC2)s1)c1ccc(Cl)nc1,IC50,[16],> 80 µM (inactive)
CN1CCN(c2ccc(CNC(=O)C3Cc4c(-c5ccc(Cl)cc5)ccnc4O3)cc2)CC1 (stereo unspecified),AC50,[17],72.1 µM (active)
COc1ccc2ncc(S(=O)(=O)c3ccccc3)c(N3CCC4(CC3)OCCO4)c2c1,IC50,[18],14.5 µM (active)
C/C(Cn1nnc([N+](=O)[O-])n1)=N\NC(=O)c1cccc(Cl)c1,IC50,[16],> 80 µM (inactive)
same,EC50,[19],> 60 µM (not active)
same,EC50,[20],0.416 µM (active)
CCCCN1CCN(c2ccc(-c3nc4c(C(N)=O)cccc4[nH]3)cc2)CC1,Ki,[21],> 5.01 µM (inactive)
same,Ki,[22],0.0501 µM (active)
same,Ki,[23],0.794 µM (active)
O=C(C1CCCN(c2ncnc3c2nc2n3CCCCC2)C1)N1CCN(c2ccc(F)cc2)CC1 (stereo unspecified),IC50,[18],20.9 µM (active)
CC(=O)c1ccc(N2CCN(c3ccnc4cc(Cl)ccc34)CC2)cc1,EC50,[24],4.05 µM (active)
same,AC50,[14],54.4 µM (active)
same,EC50,[25],> 160 µM (inactive)
Oc1c(Br)cc(Br)cc1/C=N/n1c(S)nnc1-c1ccccc1,IC50,[12],33.5 µM (inactive)
same,IC50,[13],8.08 µM (active)
Nn1c(CSc2nc3ccccc3o2)nnc1CSc1nc2ccccc2o1,IC50,[16],> 80 µM (inactive)
CC(=O)c1ccc2c(c1)Cc1cc(C(C)=O)ccc1-2,AC50,[1],96.8 µM (active)
CCC(=O)NC(c1cc(Cl)c2cccnc2c1O)C(C)C (stereo unspecified),AC50,[14],6.68 µM (active)
same,AC50,[9],1.86 µM (active)
C[C@@H]1CN([C@H](C)CO)C(=O)c2cccc(NC(=O)Nc3ccc(C(F)(F)F)cc3)c2O[C@@H]1CN(C)C(=O)NC1CCCCC1,AC50,[15],5.14 µM (active)
COc1ccc(-c2cc(-c3ccccc3)c3cc(Cl)ccc3n2)cc1,Ki,[22],0.251 µM (active)
same,Ki,[23],0.0501 µM (active)
C[C@H]1CN([C@@H](C)CO)C(=O)c2cccc(NC(=O)c3ccncc3)c2O[C@@H]1CN(C)Cc1ccc2c(c1)OCO2,AC50,[15],0.277 µM (active)
CC(=O)c1ccc(N2CCN(C(=O)C3CCCN(c4ncnc5c4nc4n5CCCCC4)C3)CC2)cc1 (stereo unspecified),IC50,[26],> 79 µM (inactive)
same,IC50,[18],18.2 µM (active)
NC(=NO)c1ccccc1S(=O)(=O)Nc1ccc2c(c1)C(=NO)c1ccccc1-2,Ki,[21],> 5.01 µM (inactive)
same,Ki,[22],0.0251 µM (active)
same,Ki,[23],0.631 µM (active)
NC(=O)N/N=C/c1ccc(-n2nncc2-c2ccc(Cl)cc2)cc1,IC50,[16],> 80 µM (inactive)
